Here are results for two compounds from patent US20240075099A1, “COMPOSITIONS, ASSAYS, AND METHODS FOR TARGETING HDM2 AND HDMX TO REVERSE THE INHIBITION OF p53 IN [sequence] CANCERS” (Dana-Farber Cancer Institute, Inc., priority 2016, published 2024).

For data set [1], the system named is MV4; 11 cells. The experiment in a line: Viability of pediatric AML cell line. It counts as cell-based. To be noted: 11, FIG. 6A.
The test system of data set [2] is TC32 Ewing Sarcoma xenografts. The experiment in a line: mRNA quantitation in xenograft tumor tissue. Conditions: normalized to vehicle-treated samples, FIG. 18. It counts as in vivo, mice. The text has this: ALRN-7041 treatment of mice bearing TC32 Ewing Sarcoma xenografts increases MDM2 and p21 mRNA levels in tumor tissue (FIG. 18). Each bar represents the response of an individual mouse tumor, as assessed by replicates of mRNA quantitation. Values are normalized to vehicle-treated samples. Error bars are mean±SD.

For data set [3], the system named is Ewing sarcoma cell lines that bear wild-type p53. Kind of data set: CellTiter-Glo viability, Ewing sarcoma cell line panel. To be noted: 72 h, FIG. 14. It is filed as cell-based. The text has this: (§1) Error bars are mean±s.e.m. for eight technical replicates.
(§2) A panel of Ewing sarcoma cell lines that bear wild-type p53 (black) vs. mutant or deleted p53 (grey) were exposed to a serial dilution of ALRN-7041 (FIG. 14).
A general note: Cellular ATP, detected with luciferase, serves as a proxy for viable cell number.

The subject of data set [4] is Ewing sarcoma cells bearing mutant or deleted p53. The description is as above. It is filed as cell-based. To be noted: 72 h, FIG. 14.
Source text: as §1, §2

Data set [5] concerns DIPG neurospheres bearing wild-type p53.
Experimental: (§4) Cells were plated in 96-well opaque plates (5000 cells/well) in Neurobasal-A/DMEM/F-12 mixture media containing HEPES, MEM sodium pyruvate, MEM non-essential amino acids, GlutaMAX, B27 Supplement, H-EGF, H-FGF, H-PDGF-AA, H-PDGF-BB, and heparin. The following day, the cells were treated with the indicated concentrations of drug or vehicle control (0.2% DMSO). […] Cell viability was measured after 72 h by CellTiter-Glo assay (Promega, Madison, WI, USA), performed according to the manufacturer's instructions, and percent viability calculated based on the untreated controls. Error bars are mean±s.e.m for experiments performed in technical triplicate.
In data set [6] the test system is high grade glioma (e.g. GBM) neurospheres bearing mutant p53. The experiment in a line: CellTiter-Glo viability, neurospheres. It is filed as cell-based. Conditions: 72 h, FIG. 13.
Experimental: as §4
The test system of data set [7] is p53 protein level in RS4; 11 cells. Kind of data set: p53 protein level by flow cytometry. To be noted: 3 hours, 10% serum, FIG. 12. It is filed as cell-based. The procedure: RS4; 11 cells were plated in 6-well plates (10^6/well) in RMPI containing 10% FBS and treated for 3 hours with ALRN-7041, ALRN-7041 F19A, or vehicle control (0.2% DMSO) in the presence of 10% serum. Cells were then harvested by centrifugation, washed in ice cold PBS, and resuspended in 100 viL PBS containing 1 μL Fixable Viability Stain 450 (BD Biosciences, Franklin Lakes. NJ, USA) and incubated in the dark at room temperature for 15 minutes. The cells were stained for p53 immunofluorescence with Cytofix/Cytoperm and the PE Mouse Anti-p53 Set (BD Biosciences) according to the manufacturer's instructions, using 10 viL PE-G59-12 anti-p53 mouse IgG1 or isotype control antibody per 10 6 cells. Stained and fixed cells were analyzed on an LSR II flow cytometer (BD Biosciences). Cell populations were gated on forward and side scatter to select for single cells and on fluorescence at 450 nm to select for live cells, and PE fluorescence in the gated population was measured at 578 nm.
For orientation: A flow cytometer gives signals particle by particle.

The test system of another data set is TC32 Ewing sarcoma cells. Kind of data set: Annexin V/PI staining and FACS analysis. It counts as cell-based. Conditions: 1 μM, 48 hours post-treatment, FIG. 16. How it is done:
TC32 Ewing sarcoma cells were treated with vehicle or 1 μM ALRN-7041 and then subjected to Annexin V/PI staining and FACS analysis at 48 hours post-treatment.

Data set [8] concerns TC32 Ewing Sarcoma xenograft. The experiment in a line: Western analysis of xenograft tumor tissue. It counts as in vivo, mice. To be noted: three intravenous doses, 8 hours after last dose, FIG. 17. The procedure:
After TC32 Ewing sarcoma tumor engraftment, mice were treated with three intravenous doses of ALRN-7041 or vehicle and sacrificed 8 hours after the last dose. Each lane of the gel represents an individual mouse tumor, subjected to western analysis using anti-MDM2, p53, and p21 antibodies. Anti-tubulin was used as a loading control.

In data set [9] the test system is TC32 Ewing Sarcoma xenografts. Kind of data set: Xenograft tumor growth. It counts as in vivo, mice. To be noted: 30 mg/kg IV q.o.d. vs vehicle, two-way ANOVA p=0.0036, FIG. 19. How it is done: Treatment of mice bearing TC32 Ewing Sarcoma xenografts with 30 mg/kg ALRN-7041 IV q.o.d. […] Error bars are mean±SD. For each animal, treatment was instituted when tumors achieved a tumor volume of 100 mm^3, as determined by caliper measurement. Statistical ignificance was calculated by two-way ANOVA analysis (p=0.0036).

The test system of data set [10] is p53 wild-type TC32 and TC138 Ewing sarcoma cells. Kind of data set: Western blot of lysates, p53 pathway. It counts as cell-based. Conditions: FIG. 15. From the text: Western blot analysis of electrophoresed lysates from p53 wild-type TC32 and TC138 Ewing sarcoma cells treated with ALRN-7041 at the indicated doses and time points and probed with anti-MDM2, p53, and p21 antibodies.

Data set [11] deals with MV4; 11 cells. Kind of data set: Cellular uptake, fluorescence scan of lysates from treated cells. Conditions: full serum, 4 h, FIG. 6B. It counts as cell-based. The procedure: Cellular Penetrability Assays: To measure the cell penetrability of peptides or crosslinked polypeptides, intact cells are incubated with fluoresceinated crosslinked polypeptides (10 μM) for 4 hrs in serum-free media or in media supplemented with human serum at 37° C., washed twice with media and incubated with trypsin (0.25%) for 10 min at 37° C. The cells are washed again and resuspended in PBS. Cellular fluorescence is analyzed, for example, by using either a FACSCalibur flow cytometer or Cellomics' KineticScan® HCS Reader. Alternative methods include, e.g., high content epifluorescence microscopy, confocal imaging, or fluorescence scan of electrophoresed lysates from FITC-peptide treated cells (see, e.g., LaBelle et al. JCI 2012, 122: 2018-31).

The test system of another data set is Molm-14 leukemia cells. The experiment in a line: CellTiter-Glo viability, leukemia cells. It counts as cell-based. Conditions: wild-type p53, 10% serum, 48 h, FIG. 11. The procedure: (§3) Importantly, the sensitivity of RS4; 11 and Molm-14 cells is peptide sequence dependent, as the F19A point mutant analog of ALRN-7041, ALRN-7041 F19A, has no effect (FIG. 11). Leukemia cells were treated in 10% serum with a serial dilution of stapled p53 peptides or Nutlin 3a, and then measured by CellTiter-Glo assay.

A further data set concerns Thp-1. The experiment in a line: CellTiter-Glo viability, leukemia cells. Conditions: mutant p53 (R174 frameshift), 10% serum, 48 h, FIG. 11. It counts as cell-based. How it is done: as §3
In another data set the test system is RS4; 11 leukemia cells. The experiment in a line: CellTiter-Glo viability, leukemia cells. It is filed as cell-based. Conditions: wild-type p53, 10% serum, 48 h, FIG. 11. How it is done:
as §3

The next data set has as its system Nomo-1. The experiment in a line: CellTiter-Glo viability, leukemia cells. It is filed as cell-based. Conditions: mutant p53 (C242 frameshift), 10% serum, 48 h, FIG. 11. The procedure: as §3

“Also recorded” adds a separate entry of the source.

Regarding `COc1ccc(C2=N[C@@H](c3ccc(Cl)cc3)[C@@H](c3ccc(Cl)cc3)N2C(=O)N2CCNC(=O)C2)c(OC(C)C)c1` [Nutlin-3a, reference compound], the cell viability entry in the data set with MV4; 11 cells [1] is “little to no effect; also recorded: resistant”.

As to Ac-LTF*EYWAQZ*SAA-NH2 [ALRN-7041], in data set [2], the “MDM2 mRNA level in tumor tissue” value is reported as “increases”. In data set [2], the “p21 mRNA level in tumor tissue” value is listed as “increases”. For the same compound, the cell viability result in data set [3] was “dose-responsively impaired the viability”; in data set [4], “little to no effect”; in [5] (72 h, FIG. 13) it was “succumb to treatment”; in data set [6], “no susceptibility”; in the data set on MV4; 11 cells [1], “impairs cell viability in both a dose-responsive and peptide sequence-dependent fashion; also recorded: dose-responsively impairs the viability”; with Molm-14 leukemia cells, “succumb to ALRN-7041 in dose-responsive fashion”. For the same compound, the cell viability result in the data set on Thp-1 was “unaffected by treatment”; with RS4; 11 leukemia cells, “succumb to ALRN-7041 in dose-responsive fashion”; in the data set on Nomo-1, “unaffected by treatment”. Besides, the “cytotoxic effect compared to a selective small molecule inhibitor of HDM2” value in data set [5] is reported as “markedly enhanced cytotoxic effect”. In [7], the p53 protein level entry is reported as “dose-responsively upregulates p53 protein level”. The “Annexin V/PI double positivity (apoptosis)” value with TC32 Ewing sarcoma cells is “robust Annexin V/PI double positivity”. The “MDM2 protein level in tumor tissue” value in data set [8] is recorded as “induces”. Also, the “p21 protein level in tumor tissue” value in [8] is given as “induces”. Moreover, in data set [8], the “p53 protein level in tumor tissue” value was “induces”. Moreover, in data set [9], the tumor growth result was “statistically significant suppression of tumor growth”. In data set [10], the MDM2 protein induction entry is “transient induction”. Further, the p21 protein induction result in [10] is given as “robust induction”. In addition, the p53 protein induction result in [10] is “robust induction”. The cellular uptake result with MV4; 11 cells [11] is “readily taken up by cells”.
